# In a melting point compilation (Tetko et al.):
row,SMILES,melting point [°C]
1,O=S1(=O)CCC(Br)CC1,127 to 129
2,CC(C)c1noc(-c2ccnc(Cl)c2)n1,35 to 37
3,CC(C)(C)c1ccc(C(=O)O)cc1[N+](=O)[O-],156 to 158
4,CCS(=O)(=O)NC(C)C(=O)O (stereo not given),129 to 131
5,O=C(CN=C=S)NC1CC1,169 to 171
6,Cc1ccc(N2CC(C(=O)O)CCC2=O)cc1C (stereo not given),184 to 186
7,O=S1(=O)CCC(CO)CC1,86 to 88
8,O=C(CCl)N1CCCCCCC1,66 to 68
9,O=C(O)c1cc(S(=O)(=O)N2CCCCC2)ccc1N1CCOCC1,173 to 175
10,O=C(O)COc1ccc([N+](=O)[O-])c(F)c1,149 to 151
11,COc1ccc(C2CCCCC2=O)cc1F (stereo not given),78 to 80
12,CS(=O)(=O)c1ccccc1N,62 to 64
13,CC1Oc2ccc(N)cc2NC1=O (stereo not given),198 to 200
14,CCOC(=O)c1nnc(N)s1,197 to 199
15,CC1CC(C)CN(S(=O)(=O)Cl)C1 (stereo not given),41 to 43
16,Cc1ccccc1NC(=O)NN,141 to 143
17,O=C(O)CCc1nnc[nH]1,127 to 129
18,NC(=S)c1cccc(O)c1,152 to 154
19,CC(C)c1ccc(C(=O)N2CCNCC2)cc1,129 to 131
20,CCOc1ccc(Oc2ccc(C(F)(F)F)cc2N)cc1,45 to 47
21,CCOC(=O)c1oc2c(c1C)C(=O)CCC2,104 to 106
22,CC1Cc2ccccc2N1C(=O)C1CCCCC1C(=O)O (stereo not given),123 to 125
23,CCCOc1cc(C=O)ccc1OC,35 to 37
24,NC(=O)c1cc(Br)ccc1N,183 to 185

row,SMILES,melting point [°C]
1,O=C(O)CCc1csc2nc(C3CC3)cn12,240 to 242
2,Cc1csc(-c2cnc(C)[nH]c2=O)n1,302 to 304
3,CN(C(=O)c1ccccc1C(=O)O)C1CCCCC1,144 to 146
4,N#Cc1cccc(C2(C(=O)O)CC2)c1,182 to 184
5,NCC(O)Cc1ccccc1 (stereo not given),67 to 69
6,Nc1nnc(CCCc2cccs2)o1,149 to 151
7,N#Cc1ccc(Cl)cc1NCC1CCOC1 (stereo not given),114 to 116
8,O=C(O)CCCNCc1ccccn1,69 to 71
9,Cc1cccc(NC(=O)C(C)Cl)c1 (stereo not given),128 to 130
10,CC(C)c1cc(O)ncn1,131 to 133
11,O=C(O)c1cccc(S(=O)(=O)N2CCCCCC2)c1,173 to 175
12,Cc1cc(C)c2c(C)c(C(=O)O)sc2n1,278 to 280
13,Sc1nc2cc(Cl)ccc2o1,277 to 279
14,CSc1ccc(C#N)c(Cl)c1,117 to 119
15,COc1ccc(N)cc1OCc1ccncc1,116 to 118
16,CCNc1ccc(C#N)cn1,88 to 90
17,COC(=O)c1sccc1O,49 to 51
18,O=c1[nH][nH]c2ncccc12,260 to 262
19,Nc1sc2c(c1C(=O)NC1CC1)CCC2,170 to 172
20,O=C(O)CCNC(=O)c1ccncc1,239 to 241
21,CCCc1cc(C(=O)O)sc1C,94 to 96
22,Nc1ccc2c(ccn2CC(=O)N2CCOCC2)c1,209 to 211
23,CS(=O)(=O)c1ccc2c(c1)CCCN2,112 to 114
24,Clc1ccc2nnc(C3CC3)n2n1,117 to 119

row,SMILES,melting point [°C]
1,O=C(O)C(F)=C1CCCC1,83 to 85
2,CCn1nc(C(F)(F)F)c(C(=O)O)c1C(F)(F)F,89 to 91
3,Cc1ccc(-n2nc(C)cc2N)nn1,119 to 121
4,CCOC(=O)c1c(CC(C)C)csc1NC(=O)CCl,98 to 100
5,CCOC(C)c1nc(C)c(C(=O)O)s1 (stereo not given),112 to 114
6,Cc1cccc(N)c1C(=O)N1CCCC1,87 to 89
7,C/C(=N/O)c1cnn(C)c1,144 to 146
8,Cc1cc(Cl)ccc1OCCCC(=O)NN,37 to 39
9,O=C(O)C1CCCN1C(=O)c1cccs1 (stereo not given),145 to 147
10,COc1ccc2nc(Cl)c(C)cc2c1,92 to 94
11,NC(=S)Nc1ccc(OC(F)(F)F)cc1,136 to 138
12,Cc1sc2nc(-c3cccs3)nc(Cl)c2c1C,130 to 137
13,c1ccc(C2CNCCS2)cc1 (stereo not given),60 to 62
14,Cn1c(Cl)nc(Cl)c1C=O,61 to 63
15,CNC(=Nc1ccnn1C(C)C)c1ccco1,233 to 235
16,Cc1nn(CCO)c(C(F)(F)Cl)c1C(=O)O,124 to 126
17,Fc1cc2nc(S)[nH]c2cc1F,291 to 293
18,Cn1ncc2c(O)c(C(=O)O)cnc21,193 to 195
19,CC(=O)c1ccc(N)cc1Cl,58 to 60
20,CCOc1ccc(C(=O)CBr)cc1,57 to 59
21,NC(=O)C1CCc2ccccc2N1 (stereo not given),115 to 117
22,CCC(C)NS(=O)(=O)c1cccc(N)c1 (stereo not given),89 to 91
23,CCOC(=O)c1c(NC(=O)CCl)sc(C)c1CC,97 to 99
24,Cc1cc(NS(=O)(=O)c2cccc(C#N)c2)no1,159 to 161

row,SMILES,melting point [°C]
1,CN(CC(=O)O)S(=O)(=O)c1cccs1,152 to 156
2,O=C(O)c1ccc(CN2CCC(O)CC2)cc1,219 to 221
3,NC(=O)C1CCNc2ccccc21 (stereo not given),119 to 121
4,Cc1ccc(C2CC2C(=O)O)cc1C (stereo not given),97 to 99
5,Cc1ccc(Cl)c(OCC(=O)O)c1,134 to 136
6,C=CS(=O)(=O)c1ccc([N+](=O)[O-])cc1,112 to 114
7,O=C1C(Br)CCN1c1cccc(Cl)c1 (stereo not given),89 to 91
8,ClCc1nc(-c2cccc(Br)c2)no1,47 to 49
9,O=C1CS(=O)CCN1 (stereo not given),119 to 121
10,Cc1cc(O)nc(NN)n1,213 to 215
11,CNS(=O)(=O)c1csc(C(=O)O)c1,170 to 172
12,COC(=O)c1cc(F)cc(Br)c1N,36 to 38
13,Nc1nnc(Cc2ccsc2)s1,177 to 179
14,CCOC(=O)/C(C#N)=C/Nc1ccccc1OCC,141 to 143
15,O=C(O)c1ccc[nH]1,204 to 208
16,Cc1cccc(NC(=O)CSCC(=O)O)c1,200 to 206
17,NC(=O)CN1CCC(O)CC1,114 to 116
18,CC(C)(C)OC(=O)N1CCC(OS(C)(=O)=O)CC1,84 to 86
19,COc1cc(C=O)ccc1OCc1c(C)cc(C(C)(C)C)cc1C,139 to 141
20,COC(=O)c1ccc(N)c(OC(F)F)c1,64 to 66
21,CCCc1ccc(C(=O)CCl)cc1,30 to 32
22,Oc1cc(C(F)(F)F)nc(-c2cccnc2)n1,277 to 279
23,CC12CCC(CC1=NNC(=O)CCl)C2(C)C (stereo not given),185 to 187

# Now from value to compound:
row,melting point [°C],SMILES
1,145 to 147,NCc1ccc(C(=O)Nc2ccc(F)cc2)cc1
2,129 to 131,O=C1CCc2[nH]c3ccccc3c2C1
3,73 to 75,CC(NC(=O)C(Br)C(C)C)c1ccccc1 (stereo not given)
4,160 to 162,Cc1cc(C(=O)O)c(C)n1-c1cccc(Cl)c1
5,164 to 166,O=Cc1sc(Nc2ccccc2)nc1Cl
6,72 to 81,O=C(CN1CCNCC1)Nc1ccc(F)cc1
7,171 to 173,O=C(O)c1ccc(F)cc1S
8,168 to 170,NS(=O)(=O)c1cccc(N2CC(C(=O)O)CC2=O)c1 (stereo not given)
9,160 to 162,Cc1cc(C(=O)NN)c(C)n1-c1ccc(F)cc1
10,61 to 63,CC(=O)c1cnn(Cc2ccccc2)c1
11,67 to 69,CC(=O)Nc1ccccc1C=O
12,319 to 321,O=C(O)c1ccc2[nH]c(-c3ccc(Cl)cc3)nc2c1
13,101 to 103,COC(=O)c1cccc(-c2ncno2)c1
14,229 to 231,O=C(O)C=Cc1cn(-c2ccccc2)nc1-c1ccc(F)cc1
15,81 to 83,COC(=O)c1ccc(-c2nc(C)cs2)cc1
16,119 to 121,Cc1nc(-c2ccc(Cl)cc2)cs1
17,244 to 246,O=C(O)c1cc(-c2ccc(Cl)cc2)nc2ccccc12
18,108 to 110,CC(C)Cc1ccc(-c2csc(N)n2)cc1
19,164 to 166,NC(=O)CCNC(=O)OCc1ccccc1
20,50 to 52,COc1ccccc1C(C)CC(=O)O (stereo not given)
21,44 to 46,CNC(c1ccc(Cl)cc1)c1cccnc1 (stereo not given)
22,152 to 154,Cc1cccc(N2N=C(C(=O)O)CCC2=O)c1
23,273 to 275,O=C(O)c1ccc(-n2cc(Br)cn2)cc1
24,110 to 112,N#CCC(=O)N1CCN(C(c2ccccc2)c2ccccc2)CC1
25,397 to 399,O=C(O)c1ccc2c(=O)n(-c3ccc(F)cc3)c(=O)[nH]c2c1

row,melting point [°C],SMILES
1,126 to 128,NCc1ccc(NC(=O)CN2CCc3ccccc32)cc1
2,86 to 88,O=C(NCCc1cccs1)C1Cc2ccccc2CN1 (stereo not given)
3,192 to 194,Nc1ccn(-c2ccncc2)n1
4,90 to 92,Cc1ccc(-n2c(SCC(=O)NN)nnc2-c2ccccc2)cc1
5,98 to 100,N#CC(N)c1cnn(-c2ccccc2)c1 (stereo not given)
6,219 to 221,Cc1ccc(-c2cnc(-c3ccccc3C(=O)O)o2)cc1
7,118 to 120,Sc1nnc(-c2ccccc2)n1Cc1ccc2c(c1)OCO2
8,189 to 191,COC(=O)c1nc2ccccc2[nH]1
9,175 to 177,Clc1cc(-c2cccnc2)nc2ncnn12
10,128 to 130,Cc1ccccc1-c1cc(N)n(CCO)n1
11,89 to 91,CC(C)(C(=O)O)c1ccc(F)cc1
12,145 to 147,CCOc1ccccc1-n1nnnc1SCC(=O)O
13,127 to 129,c1ccc(CNc2nccs2)cc1
14,104 to 106,Cc1cccc([N+](=O)[O-])c1C(=O)n1ccnc1
15,187 to 189,CC1C(=O)NC(=O)N1c1ccc(F)cc1 (stereo not given)
16,234 to 236,Cc1ccccc1N1C(=O)c2ccc(C(=O)O)cc2C1=O
17,328 to 330,Cc1cc(C)c2c(-c3ccccc3)nc(S)n2n1
18,106 to 108,Cc1ccc(C)n1-c1ccc(CC(=O)O)cc1
19,184 to 186,COc1ccc(/C=C/C(=O)O)cc1S(=O)(=O)Cl
20,148 to 150,O=C(O)/C=C/c1cn(Cc2ccccc2Cl)nc1-c1ccccc1
21,107 to 109,O=C1NCCSC1Cc1ccccc1 (stereo not given)
22,115 to 117,O=C(O)Cc1csc(-c2cccnc2)n1
23,135 to 137,N#CC1(NC(=O)c2ccccc2)CCCCC1
24,128 to 130,O=C(O)C1(c2ccccc2)CCOCC1
25,138 to 140,N#CC1CC(=O)N(c2ccccc2)C1 (stereo not given)
